# Measured values: PMC11892739, “Site-specific molecular glues for the 14-3-3/Tau pS214 protein–protein interaction via reversible covalent imine tethering” (RSC Medicinal Chemistry, 2025)
# Assays:
# 14-3-3ζ/C-Raf peptide = target: T1, 14-3-3ζ/C-Raf peptide (Homo sapiens, UniProt P63104); assay: FA peptide screen, 14-3-3ζ titration to client peptide and compound: C-Raf; type: binding; conditions: 250 μM compound, 100 nM peptide; +1 Thr
# T1 construct: made in house; host or cells: NiCo21 (DE3) E. coli
# T1 sequence (P63104 whole entry): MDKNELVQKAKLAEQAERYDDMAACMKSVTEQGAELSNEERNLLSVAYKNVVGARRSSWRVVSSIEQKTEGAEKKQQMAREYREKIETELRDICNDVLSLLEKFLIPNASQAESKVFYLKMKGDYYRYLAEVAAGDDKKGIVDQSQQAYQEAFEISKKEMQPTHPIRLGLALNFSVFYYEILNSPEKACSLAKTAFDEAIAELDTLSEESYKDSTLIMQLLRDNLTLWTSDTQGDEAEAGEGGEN
# Method: (§1) Since the hub protein 14-3-3 binds to hundreds of phosphoprotein partners, selectivity of PPI stabilization is a major challenge. The interplay of chemical reactivity, and the topology and functionality of the composite binding pocket shaped by 14-3-3 and Tau potentially provide entries towards selective stabilization. […] Here, 14-3-3ζ was titrated to a constant concentration of client peptide (100 nM) and compound (250 μM) to determine the SF250μM values for the particular 14-3-3 PPI. A variety of 14-3-3 binding proteins was represented in this client panel whereby the size and hydrophobicity of the +1 amino acid were varied. […]
# (§2) chromatography (HisTrap high performance cartridges, Cytiva). Typically two 5 mL columns were used for a 2 L culture in which the lysate was loaded on the column, washed with 10 CV wash buffer (50 mM Hepes, pH 8.0, 300 mM NaCl, 25 mM imidazole, 2 mM βME), and eluted with several fractions (2-4 CV) of elution buffer (50 mM Hepes, pH 8.0, 300 mM NaCl, 250 mM imidazole, 2 mM βME). […] Dialyzed protein was concentrated to ∼40 mg/mL, analyzed by Q -Tof LC/MS, and aliquots were flash -frozen for storage at −80 °C. […] Fractions containing the 14 -3-3 protein were pooled and concentrated to ∼60 mg/mL, analyzed Q -Tof LC/MS, and aliquots were flash -frozen for storage at −80°C.
# (§3) Fluorescence Anisotropy – compound titration […]
# 14-3-3ζ/RND3 peptide = target: T2, 14-3-3ζ/RND3 peptide (Homo sapiens, UniProt P63104); assay: FA peptide screen, 14-3-3ζ titration to client peptide and compound: RND3; type: binding; conditions: 250 μM compound, 100 nM peptide; +1 Cys
# T2 construct: made in house; host or cells: NiCo21 (DE3) E. coli
# T2 sequence (P63104 whole entry, other chains not shown): as the sequence (P63104 whole entry) above
# Method: as §1, §2, §3
structure (smiles),measurement,setting,value
CCc1ccc(-c2nccn2-c2ccc(C=O)c(Br)c2)cc1 [Compound 18],stabilization of 14-3-3/C-Raf peptide (in words),14-3-3ζ/C-Raf peptide,did not show significant stabilizing activity
same,stabilization of 14-3-3/RND3 peptide (in words),14-3-3ζ/RND3 peptide,did not show significant stabilizing activity
